Data set [1] can be described thus: Compound stability in human liver microsomes. The class given is in vitro ADME. To be noted: pH 7.4; for CLint scaled at 5 μM: liver microsomes, in vivo CLint extrapolated from human liver microsome incubation; for half-life at 5 μM: human liver microsomes 0.5 mg protein/mL, compound 5 μM, NADPH, 37° C., read-out: Human T1/2. Here is the method:
(§1) Human or rat liver microsomes incubations were conducted in duplicate in polypropylene tubes. The typical incubation mixtures consisted of human or rat liver microsomes (0.5 mg protein/mL), compounds of interest (5 μM) and NADPH (1.0 mM) in a total volume of 200 μL potassium phosphate buffer (PBS, 100 mM, pH 7.4). Compounds were dissolved in DMSO and diluted with PBS such that the final concentration of DMSO was 0.05%. The enzymatic reactions were commenced with the addition of protein after a 3-min preincubation and incubated in a water bath open to the air at 37° C. Reactions were terminated at various time points (0, 5, 10, 15, 30, 60 min) by adding equal volume of ice-cold acetonitrile. The samples were stored at −80° C. until LC/MS/MS assays.
(§2) The concentrations of compounds in the incubation mixtures of human or rat liver microsomes were determined by a LC/MS/MS method. The ranges of the linearity in the concentration range were determined for each tested compounds.
(§3) A parallel incubation was performed using denatured microsomes as the negative control, and reactions were terminated at various time points (0, 15, 60 min) after incubation at 37° C.
(§4) Dextromethorphan (70 μM) was selected as the positive control, and reactions were terminated at various time points (0, 5, 10, 15, 30, 60 min) after incubation at 37° C. Both positive and negative control samples were included in each assay to ensure the integrity of the microsomal incubation system.
(§5) The concentrations of compounds in human or rat liver microsome incubations were plotted as a percentage of the relevant zero time point control for each reaction.

Data set [2] in a line: Compound stability in rat liver microsomes. The class given is in vitro ADME. To be noted: pH 7.4; for CLint scaled at 5 μM: liver microsomes, in vivo CLint extrapolated from rat liver microsome incubation; for half-life at 5 μM: rat liver microsomes 0.5 mg protein/mL, compound 5 μM, NADPH, 37° C., read-out: Rat T1/2. Here is the method: as §1, §2, §3, §4, §5

One may read the CLint scaled as the rate of metabolic loss divided by the concentration. As to `Cc1nc(-c2c(N)ncnc2N[C@@H](C)c2nc3cccc(C#CC(C)O)c3c(=O)n2-c2ccccc2)no1` (stereo partly drawn) [Example 6, 2-((S)-1-((6-amino-5-(5-methyl-1,2,4-oxadiazol-3-yl)pyrimidin-4-yl)amino)ethyl)-5-(3-hydroxybut-1-yn-1-yl)-3-phenylquinazolin-4(3H)-one], the results for the CLint scaled at 5 μM in data set [1] and in data set [2] were 1.45 L/h/kg and 2.5 L/h/kg, respectively. In addition, the half-life at 5 μM in data set [1] came to 71.9 min; in data set [2], 59.7 min.

For `CC(O)C#Cc1cccc2nc([C@H](C)Nc3ncnc(N)c3-c3nnn(C)n3)n(-c3ccccc3)c(=O)c12` (stereo partly drawn) [Example 8, 2-((S)-1-((6-amino-5-(2-methyl-2H-tetrazol-5-yl)pyrimidin-4-yl)amino)ethyl)-5-(3-hydroxybut-1-yn-1-yl)-3-phenylquinazolin-4(3H)-one], in data set [1], the intrinsic metabolic clearance (CLint scaled) at 5 μM is 0.94 L/h/kg and the half-life at 5 μM was determined as 111 min. Also, in data set [2], the CLint scaled at 5 μM was 1.98 L/h/kg and the half-life at 5 μM came out at 75.4 min.

Consider `CC#Cc1cccc2nc([C@H](C)Nc3ncnc(N)c3-c3noc(C)n3)n(-c3ccccc3)c(=O)c12` [Example 11, (S)-2-(1-((6-amino-5-(5-methyl-1,2,4-oxadiazol-3-yl)pyrimidin-4-yl)amino)ethyl)-3-phenyl-5-(prop-1-yn-1-yl)quinazolin-4(3H)-one], for which the CLint scaled at 5 μM in data set [1] was 3.78 L/h/kg; in data set [2] it was 5.84 L/h/kg. Also, the half-life at 5 μM in data set [1] was 27.6 min; in data set [2] it was 25.5 min.

For the compound `CC#Cc1cccc2nc([C@H](C)Nc3ncnc(N)c3-c3nnn(C)n3)n(-c3ccccc3)c(=O)c12` [Example 12, (S)-2-(1-((6-amino-5-(2-methyl-2H-tetrazol-5-yl)pyrimidin-4-yl)amino)ethyl)-3-phenyl-5-(prop-1-yn-1-yl)quinazolin-4(3H)-one], in data set [1], the intrinsic clearance (CLint scaled) at 5 μM is 5.88 L/h/kg and the half-life at 5 μM stood at 17.7 min. Besides, in data set [2], the intrinsic metabolic clearance (CLint scaled) at 5 μM is 4.25 L/h/kg and the half-life at 5 μM was 35 min.

Turning to `CC#Cc1cccc2nc([C@H](CC)Nc3ncnc(N)c3-c3nnc(C)o3)n(C3CC3)c(=O)c12` [Example 27, (S)-2-(1-((6-amino-5-(5-methyl-1,3,4-oxadiazol-2-yl)pyrimidin-4-yl)amino)propyl)-3-cyclopropyl-5-(prop-1-yn-1-yl)quinazolin-4(3H)-one], the CLint scaled at 5 μM was 6.28 L/h/kg in data set [1] and 5.46 L/h/kg in data set [2]. Moreover, the half-life at 5 μM in data set [1] is 16.6 min; in data set [2] it was 27.3 min.

Consider `Cc1noc(-c2c(N)ncnc2N[C@@H](C)c2nc3cccc(C#CCO)c3c(=O)n2C2CC2)n1` [Example 30, (S)-2-(1-((6-amino-5-(3-methyl-1,2,4-oxadiazol-5-yl)pyrimidin-4-yl)amino)ethyl)-3-cyclopropyl-5-(3-hydroxyprop-1-yn-1-yl)quinazolin-4(3H)-one], for which, in data set [1], the CLint scaled at 5 μM is 1.57 L/h/kg and the half-life at 5 μM turned out to be 66.4 min. Also, in data set [2], the CLint scaled at 5 μM was 1.33 L/h/kg and the half-life at 5 μM was 112 min.

For `C[C@H](Nc1ncnc(N)c1-c1nnn(C)n1)c1nc2cccc(C#CCO)c2c(=O)n1-c1ccccc1` [Example 39, (S)-2-(1-((6-amino-5-(2-methyl-2H-tetrazol-5-yl)pyrimidin-4-yl)amino)ethyl)-5-(3-hydroxyprop-1-yn-1-yl)-3-phenylquinazolin-4(3H)-one], in data set [1], the CLint scaled at 5 μM was 1.73 L/h/kg and the half-life at 5 μM was determined as 60.2 min. In data set [2], the intrinsic metabolic clearance (CLint scaled) at 5 μM was 2.58 L/h/kg and the half-life at 5 μM stood at 57.7 min.

For `C#Cc1cccc2nc([C@H](C)Nc3ncnc(N)c3-c3nc(C)no3)n(C3CC3)c(=O)c12` [Example 43, (S)-2-(1-((6-amino-5-(3-methyl-1,2,4-oxadiazol-5-yl)pyrimidin-4-1)amino)ethyl)-3-cyclopropyl-5-ethynylquinazolin-4(3H)-one], in data set [1], the CLint scaled at 5 μM is 6.28 L/h/kg and the half-life at 5 μM was 16.6 min. Moreover, in data set [2], the CLint scaled at 5 μM was 6.69 L/h/kg and the half-life at 5 μM is 22.3 min.

With `C#Cc1cccc2nc([C@H](C)Nc3ncnc(N)c3-c3nc(C)no3)n(-c3ccccc3)c(=O)c12` [Example 44, (S)-2-(1-((6-amino-5-(3-methyl-1,2,4-oxadiazol-5-yl)pyrimidin-4-yl)amino)ethyl)-5-ethynyl-3-phenylquinazolin-4(3H)-one], in data set [1], the CLint scaled at 5 μM was 17.8 L/h/kg and the half-life at 5 μM was 5.85 min. In addition, in data set [2], the CLint scaled at 5 μM was 10.2 L/h/kg and the half-life at 5 μM stood at 14.7 min.

As to `C#Cc1cccc2nc([C@H](C)Nc3ncnc(N)c3-c3nnc(C)o3)n(-c3ccccc3)c(=O)c12` [Example 45, (S)-2-(1-((6-amino-5-(5-methyl-1,3,4-oxadiazol-2-yl)pyrimidin-4-yl)amino)ethyl)-5-ethynyl-3-phenylquinazolin-4(3H)-one], in data set [1], the CLint scaled at 5 μM is 18.1 L/h/kg and the half-life at 5 μM is 5.77 min. Also, in data set [2], the intrinsic clearance (CLint scaled) at 5 μM was 5.23 L/h/kg and the half-life at 5 μM worked out at 28.5 min.

`C[C@H](Nc1ncnc(N)c1-c1ncn(C)n1)c1nc2cccc(C#CCO)c2c(=O)n1-c1ccccc1` [Example 46, (S)-2-(1-((6-amino-5-(1-methyl-1H-1,2,4-triazol-3-yl)pyrimidin-4-yl)amino)ethyl)-5-(3-hydroxyprop-1-yn-1-yl)-3-phenylquinazolin-4(3H)-one]: the figures for the intrinsic clearance (CLint scaled) at 5 μM in data set [1] and in data set [2] were 2.95 L/h/kg and 3.65 L/h/kg, respectively. Further, the half-life at 5 μM was found to be 35.3 min in data set [1] and 40.8 min in data set [2].

Turning to `C#Cc1cccc2nc([C@H](C)Nc3ncnc(N)c3-c3noc(C)n3)n(-c3ccccc3)c(=O)c12` [Example 47, (S)-2-(1-((6-amino-5-(5-methyl-1,2,4-oxadiazol-3-yl)pyrimidin-4-yl)amino)ethyl)-5-ethynyl-3-phenylquinazolin-4(3H)-one], in data set [1], the CLint scaled at 5 μM is 17.2 L/h/kg and the half-life at 5 μM worked out at 6.05 min. Also, in data set [2], the intrinsic clearance (CLint scaled) at 5 μM is 8.39 L/h/kg and the half-life at 5 μM is 17.8 min.

For `C#Cc1cccc2nc([C@H](C)Nc3ncnc(N)c3-c3nnn(C)n3)n(-c3ccccc3)c(=O)c12` [Example 48, (S)-2-(1-((6-amino-5-(2-methyl-2H-tetrazol-5-yl)pyrimidin-4-yl)amino)ethyl)-5-ethynyl-3-phenylquinazolin-4(3H)-one], the intrinsic clearance (CLint scaled) at 5 μM in data set [1] was 18.6 L/h/kg; in data set [2], 10.3 L/h/kg. Further, the results for the half-life at 5 μM in data set [1] and in data set [2] were 5.6 min and 14.5 min, respectively.

Regarding `C#Cc1cccc2nc([C@H](C)Nc3ncnc(N)c3-c3ncn(C)n3)n(-c3ccccc3)c(=O)c12` [Example 49, (S)-2-(1-((6-amino-5-(1-methyl-1H-1,2,4-triazol-3-yl)pyrimidin-4-yl)amino)ethyl)-5-ethynyl-3-phenylquinazolin-4(3H)-one], the CLint scaled at 5 μM in data set [1] was 15.6 L/h/kg; in data set [2], 6.43 L/h/kg. Further, the half-life at 5 μM worked out at 6.7 min in data set [1] and 23.2 min in data set [2].

Turning to `C#Cc1cccc2nc([C@H](C)Nc3ncnc(N)c3-c3nnc(C)o3)n(C3CC3)c(=O)c12` [Example 50, (S)-2-(1-((6-amino-5-(5-methyl-1,3 4-oxadiazol-2-yl)pyrimidin-4-yl)amino)ethyl)-3-cyclopropyl-5-ethynylquinazolin-4(3H)-one], in data set [1], the intrinsic metabolic clearance (CLint scaled) at 5 μM is 2.86 L/h/kg and the half-life at 5 μM came out at 36.5 min. For the same compound, in data set [2], the CLint scaled at 5 μM is 2.09 L/h/kg and the half-life at 5 μM stood at 71.4 min.

Consider `C#Cc1cccc2nc([C@H](C)Nc3ncnc(N)c3-c3noc(C)n3)n(C3CC3)c(=O)c12` [Example 51, (S)-2-(1-((6-amino-5-(5-methyl-1,2,4-oxadiazol-3-yl)pyrimidin-4-yl)amino)ethyl)-3-cyclopropyl-5-ethynylquinazolin-4(3H)-one], for which, in data set [1], the CLint scaled at 5 μM is 7.07 L/h/kg and the half-life at 5 μM turned out to be 14.8 min. Further, in data set [2], the CLint scaled at 5 μM is 7.99 L/h/kg and the half-life at 5 μM is 18.7 min.

Consider `C#Cc1cccc2nc([C@H](C)Nc3ncnc(N)c3-c3ncn(C)n3)n(C3CC3)c(=O)c12` [Example 53, (S)-2-(1-((6-amino-5-(1-methyl-1H-1,2,4-triazol-3-yl)pyrimidin-4-yl)amino)ethyl)-3-cyclopropyl-5-ethynylquinazolin-4(3H)-one], for which the results for the CLint scaled at 5 μM in data set [1] and in data set [2] were 4.47 L/h/kg and 4.25 L/h/kg, respectively. Besides, the half-life at 5 μM in data set [1] was 23.4 min; in data set [2], 35 min.
